The results in this text go back to patent US9567304B2, “Quinazolinedione derivative” (Chugai Seiyaku Kabushiki Kaisha, priority 2012, dated 2017).

For this assay, the system named is human endometrial cancer cell line MFE-280. Description: Measurement of antitumor effect in MFE-280 cancer-bearing mice. The class given is in vivo. Conditions: 200 mg/kg, orally once daily, MFE-280 subcutaneous xenograft in BALB/c nude mice, 11th day after start of administration.

Take `CCS(=O)(=O)c1ccc(Cl)cc1Cn1c(=O)[nH]c2c(Cl)c(CN3CCNCC3)c(C(F)(F)F)cc2c1=O` [Compound F-1, 8-Chloro-3-(5-chloro-2-ethanesulfonyl-benzyl)-7-piperazin-1-ylmethyl-6-trifluoromethyl-1H-quinazoline-2,4-dione]: the “Antitumor effect TGI after 11 days (%)” value came to 61%.
